# Source: EP2505659A1, “Methods for the identification of dioxygenase interacting molecules and for the purification of dioxygenase proteins” (CELLZOME AG, priority 2011, dated 2012)
# Where a name gives a salt, the structure may show the parent alone. Read-outs that look alike come from different tables or passages of the source.
# Legend:
# Experiment in all cases: Bead competition binding assay, immobilized compound A, K-562, HL-60 and Jurkat nuclear lysates
# Conditions in all cases: 100 µM free compound A, read-out: Fold change versus DMSO control
# PLOD3 = target: T1, PLOD3 (Homo sapiens, UniProt O60568)
# T1 construct: capturing and identification of dioxygenases from nuclear protein extracts; endogenous in cells
# T1 sequence (O60568 25-738): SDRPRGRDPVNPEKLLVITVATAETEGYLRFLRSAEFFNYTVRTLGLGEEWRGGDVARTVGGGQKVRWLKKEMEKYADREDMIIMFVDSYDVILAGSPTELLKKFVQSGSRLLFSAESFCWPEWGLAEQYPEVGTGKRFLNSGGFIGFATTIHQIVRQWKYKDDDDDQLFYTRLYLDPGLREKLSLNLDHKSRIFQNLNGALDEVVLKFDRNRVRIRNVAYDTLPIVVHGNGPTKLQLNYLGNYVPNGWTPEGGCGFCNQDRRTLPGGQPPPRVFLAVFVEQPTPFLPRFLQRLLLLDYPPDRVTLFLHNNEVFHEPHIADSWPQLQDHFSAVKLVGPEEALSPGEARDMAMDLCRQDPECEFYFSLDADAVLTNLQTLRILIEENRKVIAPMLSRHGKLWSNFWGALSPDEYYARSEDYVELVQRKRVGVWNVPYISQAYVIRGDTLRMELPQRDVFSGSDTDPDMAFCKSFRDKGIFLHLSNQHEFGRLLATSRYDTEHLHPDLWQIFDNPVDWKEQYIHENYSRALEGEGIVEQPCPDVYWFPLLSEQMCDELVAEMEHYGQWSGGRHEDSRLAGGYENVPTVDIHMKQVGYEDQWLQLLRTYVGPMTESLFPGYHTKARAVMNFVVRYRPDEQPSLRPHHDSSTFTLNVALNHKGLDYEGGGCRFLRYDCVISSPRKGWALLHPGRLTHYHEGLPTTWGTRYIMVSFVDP
# Source text: (§1) K562 cells were also purchased from DSMZ (Braunschweig, Germany).
# (§2) Table 5: Peptide elution off the LC system
# FTO = target: T2, FTO (Homo sapiens, UniProt Q9C0B1)
# T2 construct: endogenous in cells
# Source text: as §1, §2
# EGLN1 = target: T3, EGLN1 (Homo sapiens, UniProt Q9GZT9)
# T3 construct: endogenous in cells
# Source text: as §1, §2
# PLOD1 = target: T4, PLOD1 (Homo sapiens, UniProt Q02809)
# T4 construct: capturing and identification of dioxygenases from nuclear protein extracts; endogenous in cells
# T4 sequence (Q02809 19-727): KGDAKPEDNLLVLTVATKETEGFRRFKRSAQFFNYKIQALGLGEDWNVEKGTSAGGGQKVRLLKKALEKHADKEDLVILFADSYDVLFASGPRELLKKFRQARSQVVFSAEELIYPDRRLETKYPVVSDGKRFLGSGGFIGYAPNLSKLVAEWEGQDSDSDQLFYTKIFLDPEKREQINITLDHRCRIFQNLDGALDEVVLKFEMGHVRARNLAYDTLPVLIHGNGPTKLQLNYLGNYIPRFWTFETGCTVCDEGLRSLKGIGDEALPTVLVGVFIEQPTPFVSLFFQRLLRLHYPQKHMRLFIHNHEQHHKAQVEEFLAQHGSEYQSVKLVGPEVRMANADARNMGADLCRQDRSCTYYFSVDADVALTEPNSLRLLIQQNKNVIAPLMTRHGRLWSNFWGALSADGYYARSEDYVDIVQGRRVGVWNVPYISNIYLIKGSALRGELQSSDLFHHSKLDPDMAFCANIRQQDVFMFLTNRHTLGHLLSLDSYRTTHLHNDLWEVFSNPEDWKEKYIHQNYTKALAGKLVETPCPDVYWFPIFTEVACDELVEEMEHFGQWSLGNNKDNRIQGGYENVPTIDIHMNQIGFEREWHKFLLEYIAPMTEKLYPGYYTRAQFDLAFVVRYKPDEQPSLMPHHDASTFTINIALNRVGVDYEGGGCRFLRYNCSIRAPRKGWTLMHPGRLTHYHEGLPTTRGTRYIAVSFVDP
# Source text: as §1, §2
# LEPREL2 = target: T5, LEPREL2 (Homo sapiens, UniProt Q8IVL6)
# T5 construct: capturing and identification of dioxygenases from nuclear protein extracts; endogenous in cells
# T5 sequence (Q8IVL6 21-736): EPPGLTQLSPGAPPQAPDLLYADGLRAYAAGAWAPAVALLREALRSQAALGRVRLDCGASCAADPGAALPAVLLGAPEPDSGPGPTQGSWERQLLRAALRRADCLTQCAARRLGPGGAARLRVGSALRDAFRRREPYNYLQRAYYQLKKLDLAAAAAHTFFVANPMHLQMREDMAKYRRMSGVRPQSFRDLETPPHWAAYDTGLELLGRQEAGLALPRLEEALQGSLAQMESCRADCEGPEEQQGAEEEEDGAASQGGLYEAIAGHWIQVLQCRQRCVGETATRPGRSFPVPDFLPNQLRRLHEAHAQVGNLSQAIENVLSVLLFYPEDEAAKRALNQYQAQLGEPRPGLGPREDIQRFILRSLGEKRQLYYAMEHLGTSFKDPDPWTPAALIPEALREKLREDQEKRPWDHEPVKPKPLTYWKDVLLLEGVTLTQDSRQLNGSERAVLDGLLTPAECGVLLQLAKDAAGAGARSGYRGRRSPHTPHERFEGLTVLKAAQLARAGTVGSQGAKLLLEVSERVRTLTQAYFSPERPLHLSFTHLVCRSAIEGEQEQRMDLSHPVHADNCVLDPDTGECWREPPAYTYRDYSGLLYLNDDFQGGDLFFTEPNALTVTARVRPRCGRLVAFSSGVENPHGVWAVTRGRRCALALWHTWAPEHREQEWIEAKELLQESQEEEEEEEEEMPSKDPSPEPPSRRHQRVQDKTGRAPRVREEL
# Source text: as §1, §2
# T2 sequence (Q9C0B1 whole entry): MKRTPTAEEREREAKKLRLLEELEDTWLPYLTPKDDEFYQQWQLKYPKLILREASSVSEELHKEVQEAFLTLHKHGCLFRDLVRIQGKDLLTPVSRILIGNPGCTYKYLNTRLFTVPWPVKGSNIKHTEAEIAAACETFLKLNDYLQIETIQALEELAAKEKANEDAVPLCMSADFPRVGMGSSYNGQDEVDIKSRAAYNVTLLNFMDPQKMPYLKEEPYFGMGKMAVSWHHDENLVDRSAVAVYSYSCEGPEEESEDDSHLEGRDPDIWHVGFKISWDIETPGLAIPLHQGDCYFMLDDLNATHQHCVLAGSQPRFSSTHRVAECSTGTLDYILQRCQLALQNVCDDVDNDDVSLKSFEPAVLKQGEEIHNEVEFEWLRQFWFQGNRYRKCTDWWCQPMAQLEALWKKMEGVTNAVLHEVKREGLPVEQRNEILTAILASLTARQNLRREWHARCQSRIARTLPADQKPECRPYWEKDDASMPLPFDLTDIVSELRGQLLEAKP
# T3 sequence (Q9GZT9 whole entry): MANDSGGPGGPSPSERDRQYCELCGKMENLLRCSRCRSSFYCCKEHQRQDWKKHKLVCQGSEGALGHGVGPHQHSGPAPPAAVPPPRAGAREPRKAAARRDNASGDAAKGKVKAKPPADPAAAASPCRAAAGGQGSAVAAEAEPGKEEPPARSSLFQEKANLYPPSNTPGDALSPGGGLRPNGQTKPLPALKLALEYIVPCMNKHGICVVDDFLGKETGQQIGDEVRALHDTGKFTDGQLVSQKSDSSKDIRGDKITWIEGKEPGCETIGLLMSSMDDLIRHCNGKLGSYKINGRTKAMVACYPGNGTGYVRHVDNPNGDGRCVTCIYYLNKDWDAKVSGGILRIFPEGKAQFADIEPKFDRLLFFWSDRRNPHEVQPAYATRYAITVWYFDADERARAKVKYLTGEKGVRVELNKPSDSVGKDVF
smiles,measurement,setting,value
"O=C(O)CNC(=O)C1C(=O)OC2(CCNCC2)OC1=O [compound A, 2-(2,4-dioxo-1,5-dioxa-9-azaspiro[5.5]undecane-3-carboxamido)acetic acid hydrochloride]",remaining binding at 100 µM,PLOD3; Jurkat nuclear lysate,161%
same,remaining binding at 100 µM,PLOD3; K-562 nuclear lysate,52%
same,remaining binding at 100 µM,FTO; Jurkat nuclear lysate,8%
same,remaining binding at 100 µM,FTO; K-562 nuclear lysate,19%
same,remaining binding at 100 µM,EGLN1; HL-60 nuclear lysate,24%
same,remaining binding at 100 µM,EGLN1; Jurkat nuclear lysate,13%
same,remaining binding at 100 µM,PLOD1; Jurkat nuclear lysate,91%
same,remaining binding at 100 µM,PLOD1; K-562 nuclear lysate,35%
same,remaining binding at 100 µM,LEPREL2; Jurkat nuclear lysate,9%
same,remaining binding at 100 µM,LEPREL2; K-562 nuclear lysate,25%
